One assay relates to Kuramochi cells RB-WT. Kind of assay: IncuCyte Kuramochi cell proliferation assay, RB-WT. The format is cell-based. The following applies: 72 hours, cell count. Summed up:
(§1)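 GI50 was derived by curve-fitting DMSO-normalized fold change in nuclear count between 0 and 72 h. Counts came from images of Kuramochi cells carrying mApple-H2B. Compounds were dosed over 10 points at 1/2-log spacing from a 20 µM top concentration.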

A further assay has as its system Kuramochi cells RB-KO. Kind of assay: IncuCyte Kuramochi cell proliferation assay, RB-KO. The class given is cell-based. The following applies: 72 hours, cell count, batch mean. The essentials:
as §1

Another assay has as its target CDK2/Cyclin E1 (Homo sapiens, UniProt P24941). Kind of assay: ADP-Glo Luminescent Kinase Assay (CDK2/E1-37C). The following applies: 0.18 nM CDK2/Cyclin E1, 100 μM ATP, Histone H1, 37° C.; read-out: ADPGLO (CDK2/E1-37C): IC50. The class given is biochemical. The essentials: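 IC50 fitted by four-parameter equation from ADP-Glo luminescence converted to % activity. Compounds were preincubated 60 min at 37 °C with enzyme, then kinase reaction ran 90 min at 37 °C with 0.18 nM enzyme, 100 μM ATP, Histone H1 ([…]), pH 7.5 HEPES, Mg2+, DTT.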
For orientation: In ADP-Glo the light output rises with the ADP produced.

Structures are written as SMILES.

`CC(C)(C(=O)N1CC2(CN(C(=O)c3cnn(Cc4ccc(F)cc4)c3)C[C@H]2COCc2cccc(-c3cccc(C(F)(F)F)c3)c2C(=O)O)C1)C(F)(F)F` [I′-27, (S)-3-(((6-(1-(4-fluorobenzyl)-1H-pyrazole-4-carbonyl)-2-(3,3,3-trifluoro-2,2-dimethylpropanoyl)-2,6-diazaspiro[3.4]octan-8-yl)methoxy)methyl)-3′-(trifluoromethyl)-[1,1′-biphenyl]-2-carboxylic acid]: the IC50 is 5 to 10 µM in the assay on Kuramochi cells RB-WT, greater than 10 µM in the assay on Kuramochi cells RB-KO and no more than 0.5 µM on CDK2/Cyclin E1.
Turning to `CC(C)(C(=O)N1CC2(CN(C(=O)c3cnn(Cc4ccc(F)cc4)c3)C[C@H]2COCc2cccc(-c3cccc(F)c3)c2C(=O)O)C1)C(F)(F)F` [I′-28], the IC50 is 5 to 10 µM in the assay on Kuramochi cells RB-WT, greater than 10 µM with Kuramochi cells RB-KO and no more than 0.5 µM on CDK2/Cyclin E1.
`O=C(O)c1c(CCC2CN(C(=O)c3cnn(Cc4ccc(F)cc4)c3)CC23CN(C(=O)C2(C(F)(F)F)CC2)C3)cccc1C1CCC(F)(F)CC1` (stereo not drawn) [I′-29]: the values for the IC50 in the assay on Kuramochi cells RB-WT, with Kuramochi cells RB-KO and on CDK2/Cyclin E1 were greater than 10 µM, greater than 10 µM and no more than 0.5 µM, respectively.
Turning to `CC(C)(C(=O)N1CC2(CN(C(=O)c3cnn(Cc4ccc(F)cc4)c3)C[C@H]2COCc2cccc(C3CCC(F)(F)CC3)c2C(=O)OCCN2CCOCC2)C1)C(F)(F)F` [I′-31], the IC50 in the assay on Kuramochi cells RB-WT is 0.5 to 5 µM; in the assay on Kuramochi cells RB-KO, 5 to 10 µM; on CDK2/Cyclin E1 it was no more than 0.5 µM.
In the same order, the values of `O=C(O)c1c(OCCC2CN(C(=O)c3cnn(Cc4ccc(F)cc4)c3)CC23CN(C(=O)C2(C(F)(F)F)CC2)C3)cccc1C1CCC(F)(F)CC1` (stereo not drawn) [I′-32, 2-(4,4-difluorocyclohexyl)-6-(2-(6-(1-(4-fluorobenzyl)-1H-pyrazole-4-carbonyl)-2-(1-(trifluoromethyl)cyclopropane-1-carbonyl)-2,6-diazaspiro[3.4]octan-8-yl)ethoxy)benzoic acid] are no more than 0.5 µM, 5 to 10 µM and no more than 0.5 µM.
In the same order, the values of `NC(=O)c1c(COC[C@@H]2CN(c3cc(F)c(F)c4ncsc34)CC23CN(C(=O)C2(C(F)(F)F)CC2)C3)cccc1C1CCC(F)(F)CC1` [I′-33, 2-(((6-(4,5-difluorobenzo[d]thiazol-7-yl)-2-(1-(trifluoromethyl)cyclopropane-1-carbonyl)-2,6-diazaspiro[3.4]octan-8-yl)methoxy)methyl)-6-(4,4-difluorocyclohexyl)benzamide] are greater than 10 µM, greater than 10 µM and no more than 0.5 µM.
For `O=C(O)c1c(COC[C@@H]2CN(c3cc(F)c(F)c4ncsc34)CC23CN(C(=O)C2(C(F)(F)F)CC2)C3)cccc1C1CCC(C(F)(F)F)CC1` (stereo partly drawn) [I′-34, (S)-2-(((6-(4,5-difluorobenzo[d]thiazol-7-yl)-2-(1-(trifluoromethyl)cyclopropane-1-carbonyl)-2,6-diazaspiro[3.4]octan-8-yl)methoxy)methyl)-6-(4-(trifluoromethyl)cyclohexyl)benzoicacid], the results for the IC50 in the assay with Kuramochi cells RB-WT, in the assay on Kuramochi cells RB-KO and at CDK2/Cyclin E1 were no more than 0.5 µM, greater than 10 µM and no more than 0.5 µM, respectively.
On to `CC(C)(C(=O)N1CC2(CN(C(=O)c3cnn(Cc4ccc(F)cc4)c3)C[C@H]2COCc2cccc(C3CCC(F)(F)CC3)c2C#N)C1)C(F)(F)F` [I′-35], for which the IC50 in the assay with Kuramochi cells RB-WT is 0.5 to 5 µM; in the assay with Kuramochi cells RB-KO, greater than 10 µM; at CDK2/Cyclin E1, no more than 0.5 µM.
With `CC1(C)C[C@@H]1C(=O)N1CC2(CN(C(=O)c3cnn(Cc4ccc(F)cc4)c3)C[C@H]2COCc2cccc(C3CCC(F)(F)CC3)c2C(=O)OCCN2CCOCC2)C1` [I′-36, 2-morpholinoethyl 2-(4,4-difluorocyclohexyl)-6-((((S)-2-((S)-2,2-dimethylcyclopropane-1-carbonyl)-6-(1-(4-fluorobenzyl)-1H-pyrazole-4-carbonyl)-2,6-diazaspiro[3.4]octan-8-yl)methoxy)methyl)benzoate], the IC50 in the assay on Kuramochi cells RB-WT was no more than 0.5 µM; in the assay on Kuramochi cells RB-KO, 0.5 to 5 µM; on CDK2/Cyclin E1, no more than 0.5 µM.
Turning to `CC(C)(C(=O)N1CC2(CN(C(=O)c3cnn(Cc4ccc(F)cc4)c3)C[C@H]2COCc2cccc(C3=CCC(F)(F)CC3)c2C(=O)O)C1)C(F)(F)F` [I′-37], the IC50 in the assay on Kuramochi cells RB-WT is no more than 0.5 µM; in the assay with Kuramochi cells RB-KO it was greater than 10 µM; at CDK2/Cyclin E1, no more than 0.5 µM.
For `CC(C)(C(=O)N1CC2(CN(C(=O)c3cnn(Cc4ccc(F)cc4)c3)C[C@H]2COCc2cccc(-c3ccc(F)cc3)c2C(=O)O)C1)C(F)(F)F` [I′-38], the IC50 was 5 to 10 µM in the assay with Kuramochi cells RB-WT, greater than 10 µM in the assay on Kuramochi cells RB-KO and no more than 0.5 µM at CDK2/Cyclin E1.
For the compound `CC(C)(C(=O)N1CC2(CN(C(=O)c3cnn(Cc4ccc(F)cc4)c3)C[C@H]2COCc2cccc(-c3ccccc3)c2)C1)C(F)(F)F` [I′-39], the IC50 was greater than 10 µM with Kuramochi cells RB-WT, greater than 10 µM with Kuramochi cells RB-KO and 0.5 to 5 µM at CDK2/Cyclin E1.
For `CC(C)(C(=O)N1CC2(CN(C(=O)c3cnn(Cc4ccc(F)cc4)c3)C[C@H]2COCc2cccc(-c3ccccc3C(=O)O)c2)C1)C(F)(F)F` [I′-40], the figures for the IC50 with Kuramochi cells RB-WT, in the assay with Kuramochi cells RB-KO and at CDK2/Cyclin E1 were 0.5 to 5 µM, 5 to 10 µM and 0.5 to 5 µM, respectively.
`Cc1cc(N2C[C@@H](COCc3cccc(C4CCC(F)(F)CC4)c3C(=O)O)C3(CN(C(=O)C4(C(F)(F)F)CC4)C3)C2)c2scnc2c1C` [I′-41]: the IC50 with Kuramochi cells RB-WT is 5 to 10 µM; with Kuramochi cells RB-KO it was greater than 10 µM; on CDK2/Cyclin E1, greater than 10 µM.
For the compound `CC1(C)C[C@@H]1C(=O)N1CC2(CN(C(=O)c3cnn(Cc4ccc(F)cc4)c3)C[C@H]2COCc2cccc(C3CCC(F)(F)CC3)c2C#N)C1` [I′-42, 2-(4,4-difluorocyclohexyl)-6-((((S)-2-((S)-2,2-dimethylcyclopropane-1-carbonyl)-6-(1-(4-fluorobenzyl)-1H-pyrazole-4-carbonyl)-2,6-diazaspiro[3.4]octan-8-yl)methoxy)methyl)benzonitrile], the IC50 in the assay on Kuramochi cells RB-WT was 0.5 to 5 µM; with Kuramochi cells RB-KO, 0.5 to 5 µM; at CDK2/Cyclin E1, no more than 0.5 µM.
For `CC1(C)C[C@@H]1C(=O)N1CC2(CN(C(=O)c3cnn(Cc4ccc(F)cc4)c3)C[C@H]2COCc2cccc(C3CCC(F)(F)CC3)c2-c2nn[nH]n2)C1` [I′-43, ((S)-8-(((3-(4,4-difluorocyclohexyl)-2-(2H-tetrazol-5-yl)benzyl)oxy)methyl)-2-((S)-2,2-dimethylcyclopropane-1-carbonyl)-2,6-diazaspiro[3.4]octan-6-yl)(1-(4-fluorobenzyl)-1H-pyrazol-4-yl)methanone], the IC50 in the assay with Kuramochi cells RB-WT is no more than 0.5 µM; in the assay on Kuramochi cells RB-KO it was 5 to 10 µM; at CDK2/Cyclin E1 it was no more than 0.5 µM.
As for `CS(=O)(=O)NC(=O)c1c(COC[C@@H]2CN(C(=O)c3cnn(Cc4ccc(F)cc4)c3)CC23CN(C(=O)C2(C(F)(F)F)CC2)C3)cccc1C1CCC(F)(F)CC1` [I′-44, (S)-2-(4,4-difluorocyclohexyl)-6-(((6-(1-(4-fluorobenzyl)-1H-pyrazole-4-carbonyl)-2-(1-(trifluoromethyl)cyclopropane-1-carbonyl)-2,6-diazaspiro[3.4]octan-8-yl)methoxy)methyl)-N-(methylsulfonyl)benzamide], the IC50 was 0.5 to 5 µM in the assay with Kuramochi cells RB-WT, greater than 10 µM in the assay on Kuramochi cells RB-KO and no more than 0.5 µM on CDK2/Cyclin E1.
In the same order, the values of `CC(C)(C(=O)N1CC2(CN(C(=O)c3cnn(Cc4cc(F)cc(F)c4)c3)C[C@H]2COCc2cccc(C3CCC(F)(F)CC3)c2C(=O)O)C1)C(F)(F)F` [I′-45, (S)-2-(((6-(1-(3,5-difluorobenzyl)-1H-pyrazole-4-carbonyl)-2-(3,3,3-trifluoro-2,2-dimethylpropanoyl)-2,6-diazaspiro[3.4]octan-8-yl)methoxy)methyl)-6-(4,4-difluorocyclohexyl)benzoic acid] are 0.5 to 5 µM, greater than 10 µM and no more than 0.5 µM.
Take `O=C(O)c1c(/C=C/CC2CN(C(=O)c3cnn(Cc4ccc(F)cc4)c3)CC23CN(C(=O)C2(C(F)(F)F)CC2)C3)cccc1C1CCC(F)(F)CC1` (stereo not drawn) [I′-46]: the IC50 in the assay with Kuramochi cells RB-WT is 5 to 10 µM; in the assay with Kuramochi cells RB-KO, greater than 10 µM; at CDK2/Cyclin E1, 0.5 to 5 µM.
For `CC1CCC(c2cccc(COC[C@@H]3CN(c4cc(F)c(F)c5ncsc45)CC34CN(C(=O)C(C)(C)C(F)(F)F)C4)c2C(=O)O)CC1` (stereo partly drawn) [I′-47, (S)-2-(((6-(4,5-difluorobenzo[d]thiazol-7-yl)-2-(3,3,3-trifluoro-2,2-dimethylpropanoyl)-2,6-diazaspiro[3.4]octan-8-yl)methoxy)methyl)-6-(4-methylcyclohexyl)benzoic acid], the IC50 with Kuramochi cells RB-WT was greater than 10 µM; in the assay on Kuramochi cells RB-KO, greater than 10 µM; at CDK2/Cyclin E1 it was no more than 0.5 µM.
As to `O=C(O)c1c(COC[C@@H]2CN(c3cc(C(F)(F)F)c(F)c4ncsc34)CC23CN(C(=O)C2(C(F)(F)F)CC2)C3)cccc1C1CCC(F)(F)CC1` [I′-48], the IC50 with Kuramochi cells RB-WT was no more than 0.5 µM; with Kuramochi cells RB-KO, greater than 10 µM; on CDK2/Cyclin E1, 5 to 10 µM.
For `O=C(O)c1c(COC[C@@H]2CN(c3cc(Cl)c(Cl)c4ncsc34)CC23CN(C(=O)C2(C(F)(F)F)CC2)C3)cccc1C1CCC(F)(F)CC1` [I′-49], the IC50 in the assay with Kuramochi cells RB-WT was greater than 10 µM; in the assay on Kuramochi cells RB-KO, greater than 10 µM; on CDK2/Cyclin E1, 0.5 to 5 µM.
Regarding `O=C(O)c1c(COC[C@@H]2CN(c3cc(F)c(F)c4nc(C(F)(F)F)sc34)CC23CN(C(=O)C2(C(F)(F)F)CC2)C3)cccc1C1CCC(F)(F)CC1` [I′-50], the IC50 in the assay with Kuramochi cells RB-WT, with Kuramochi cells RB-KO and at CDK2/Cyclin E1 was greater than 10 µM each time.
